The text below walks through data of US5230897A, “Transdermal pentamidine” (priority 1991, dated 1993).

“And” between values parts separate entries of the source, which are not always exact repeats. Equal values may be shown once. Read-outs that look alike come from different tables or passages of the source.

How the values of data set [1] were obtained:
The in vitro studies described herein measured the rate of pentamidine transport across skin excised from a "nude" mouse. The skin is placed in a vertical two-chambered device. The skin partitions between a donor compartment containing a formulation to be tested and a receptor compartment containing the aqueous medium. The skin is clamped in place with skin epidermis facing the donor compartment. A water jacket maintains a constant temperature (37° C.).
The following pharmaceutical formulations were prepared by dissolving any dry ingredients (i.e. pentamidine isethionate, terpene, methyl paraben, propyl paraben) in the solvent (i.e. isopropyl alcohol/water or propylene glycol/water). […] Gentle stirring was then continued for the next 15 minutes or until the solution thickened. When polyquaternium-10 is the polymer heating was required to make the formulation gel.

Data set [2] in a line: Pentamidine pharmacokinetics after IV infusion in Rhesus monkeys (plasma, urine). In kind it is in vivo. The protocol:
Pentamidine was administered to four Rhesus monkeys by an IV infusion of 1 hr duration which was designed to deliver 4 mg drug/kg animal weight. Urine samples were obtained at -24 to 0 hr, 0 to 3 hr, 3 to 7 hr, 7 to 24 hr and 24 to 48 hr. Blood (2 ml) was withdrawn from an arm vein at -24 hr, 0.5 hr, 1 hr, 2 hr, 3 hr, 5 hr, 7 hr, 24 hr and 48 hr after the end of the IV infusion. Plasma was obtained from the heparinized blood by centrifugation.

The conditions of data set [3]: rhesus monkey, in vivo.
Data set [4] in a line: Pentamidine pharmacokinetics after transdermal application in Rhesus monkeys (plasma, urine, residual analysis).

Turning to `CC12CCC(CC1=O)C2(C)C` (stereo not drawn) [camphor], the “penetration enhancement for transdermal delivery of pentamidine” value (“penetration enhancement” for short) in data set [1] (result in words) is on record as “effective penetration enhancers”.

Regarding `C/C=C/c1ccc(OC)cc1` [t-anethole], in data set [1] (result in words), the “penetration enhancement” value is “effective penetration enhancers”.

With `C=C(C)C1CC=C(C)[C@@H](O)C1` (stereo partly drawn) [carveol], the “penetration enhancement” value in data set [1] was “effective penetration enhancers”.

In the case of `Cc1ccc(C(C)C)c(O)c1` [thymol], the “penetration enhancement” value in data set [1] (result in words) is listed as “effective penetration enhancers”.

For the compound `CC(C)[C@@H]1CC[C@@H](C)C[C@@H]1O` (relative stereo) [neomenthol], in data set [1] (result in words), the “penetration enhancement” value is given as “effective penetration enhancers”.

For the compound `C=C(C)C1CC=C(C)C(=O)C1` (stereo not drawn) [carvone], in data set [1] (result in words), the “penetration enhancement” value was “effective penetration enhancers”.

For `CC(C)=C1CC[C@@H](C)CC1=O` [pulegone], the “penetration enhancement” value in data set [1] (result in words) is given as “effective penetration enhancers”.

Take `C=C(C)C1CCC(C)C(O)C1` (stereo not drawn) [dihydrocarveol]: the “penetration enhancement” value in data set [1] (result in words) is reported as “effective penetration enhancers”.

Regarding `C=C(C)[C@@H]1CC[C@@H](C)C[C@H]1O` [isopulegol], the “penetration enhancement” value in data set [1] (result in words) was “effective penetration enhancers”.

Turning to `C=CC(C)(O)CCC=C(C)C` (stereo not drawn) [linalol], the “penetration enhancement” value in data set [1] (result in words) was “effective penetration enhancers”.

On to `C=C(C)C1CCC(C)C(=O)C1` (stereo not drawn) [dihydrocarvone], for which the “penetration enhancement” value in data set [1] (result in words) was “effective penetration enhancers”.

`CC(C)[C@@H]1CC[C@@H](C)CC1=O` [menthone]: the “penetration enhancement” value in data set [1] (result in words) is on record as “effective penetration enhancers”.

With `CC1=CCC(O)(C(C)C)CC1` (stereo not drawn) [terpene-4-ol], in data set [1], the “penetration enhancement” value is given as “effective penetration enhancers”.

As for `CC1=CCC(C(C)(C)O)CC1` (stereo not drawn) [α-terpineol], the “penetration enhancement” value in data set [1] (result in words) is listed as “effective penetration enhancers”.

`CC1CCC(C(C)C)C(O)C1` (stereo not drawn) [menthol]: the “penetration enhancement” value in data set [1] (result in words) is reported as “effective penetration enhancers”.

On to `Cc1ccc(C(C)C)cc1O` [carvacrol], for which the “penetration enhancement” value in data set [1] (result in words) was “effective penetration enhancers”.

Turning to `CC(C)=CCCC(C)=CC=O` [citral], the “penetration enhancement” value in data set [1] (result in words) is on record as “effective penetration enhancers”.

On to `N=C(N)c1ccc(OCCCCCOc2ccc(C(=N)N)cc2)cc1` [pentamidine, 4,4'-[1,5-Pentanediylbis(oxy)]bisbenzenecarboximidamide], for which, in data set [2] (DOSEiv/AUCiv, individual monkeys 1, 2, 3, 4, 4 mg/kg), the “Total Clearance, IV dose” value is 39.27 lt/h and 24.18 lt/h and 20.38 lt/h and 19.38 lt/h. In data set [2] (plasma, IV 4 mg/kg, 1 hr infusion, individual monkeys 1, 2, 3, 4, 4 mg/kg, 300 min), the “AUC, IV (0-5 h)” value was 428 (ng/ml) h and 719 (ng/ml) h and 883 (ng/ml) h and 784 (ng/ml) h. In addition, the exposure (AUC) (commonly the area under the concentration-time curve, a measure of exposure) at 5 h in data set [2] (rhesus monkey, plasma, iv, 4 mg/kg, AUC, IV (0-5 h), Average (SD), IV 4 mg/kg, 1 hr infusion, average of 4 monkeys) turned out to be 704 ng·h/mL. In data set [2] (rhesus monkey, plasma, iv, 4 mg/kg, DOSEiv/AUCiv, average of 4 monkeys, read-out: Total Clearance, IV dose, Average (SD) (converted)), the clearance (usually the rate of elimination divided by the concentration) was 430 mL/min. Moreover, the dose excreted at 48 h in data set [2] (rhesus monkey, urine, iv, 4 mg/kg, IV, average of 4 monkeys, read-out: % Dose excreted in urine, IV dose 0-48 h, Average (SD)) worked out at 2.28%. Moreover, the CL renal at 48 h in data set [2] (rhesus monkey, urine, iv, 4 mg/kg, amount in urine (0-48 h)/AUCiv, average of 4 monkeys, read-out: Renal Clearance, IV dose, Average (SD) (converted)) is 10 mL/min. The “Urine Cum. Pentam., IV 0-48 h, Average (SD)” value in data set [2] (urine, IV, average of 4 monkeys) was 0.39 (0.27) mg. The “Urine Cum. Pentam., IV 0-48 h” value in data set [2] (urine, IV, individual monkeys 1, 2, 3, 4) was 0.360 mg and 0.691 mg and 0.473 mg and 0.054 mg. The “blood levels of pentamidine by transdermal delivery” value in data set [3] is “effective blood levels of pentamidine can be achieved by transdermal delivery”. Besides, the “% Absolute Bioavail.” value in data set [4] ((AUCtrans/AUCiv) × (DOSEiv/DOSEtrans) × 100, individual monkeys 1, 2, 3, 4) was 99.2% and 29.03% and 18.99% and 27.19%. Moreover, the “residual pentamidine recovered from transdermal chambers” value in data set [4] (chambers removed 24 hr after application) is reported as “Only small amounts of the original dose of pentamidine were recovered”. Moreover, the “% Dose absorbed excreted in urine, transdermal dose 0-48, Average (SD)” value in data set [4] (dose absorbed from urine % bioavailability, average of 4 monkeys) is 2.26 (1.45) %. Besides, in data set [4] (dose absorbed from urine % bioavailability, individual monkeys 1, 2, 3, 4), the “% Dose absorbed excreted in urine, transdermal dose 0-48” value is 2.15% and 3.88% and 2.62% and 0.38%. The “% Bioavailability” value in data set [4] (dose-corrected ratio of total pentamidine excreted in urine, transdermal vs IV, individual monkeys 1, 2, 3, 4) was 50.34% and 19.32% and 73.28% and 85.62%. In data set [4] (plasma, transdermal 292 mg, individual monkeys 1, 2, 3, 4, 4320 min), the “AUC, Trans (0-72 hr)” value is 7407 (ng/ml) h and 3426 (ng/ml) h and 2721 (ng/ml) h and 4384 (ng/ml) h. Further, the bioavailability (in general, dose-corrected exposure relative to a reference, in per cent) turned out to be 43.6% in data set [4] (rhesus monkey, plasma, topical or ocular, 292 mg, % Absolute Bioavail., Average (SD), (AUCtrans/AUCiv) × (DOSEiv/DOSEtrans) × 100, average of 4 monkeys) and 57.1% in data set [4] (rhesus monkey, urine, topical or ocular, 292 mg, % Bioavailability, Average (SD), dose-corrected ratio of total pentamidine excreted in urine, transdermal vs IV, average of 4 monkeys). Further, the AUC at 72 h in data set [4] (rhesus monkey, plasma, topical or ocular, 292 mg, AUC, Trans (0-72 hr), Average (SD), transdermal 292 mg, average of 4 monkeys) amounted to 4480 ng·h/mL. Also, the Fa at 24 h in data set [4] (rhesus monkey, residual in pads, topical or ocular, 292 mg, % Absorbed (from residual analysis in the pads), Average (SD), transdermal, average of 4 monkeys) was 57.7%. For the same compound, the “% Absorbed (from residual analysis in the pads)” value in data set [4] (transdermal, individual monkeys 1, 2, 3, 4, 1440 min) was 70.9% and 54.4% and 58.8% and 46.5%. In data set [4] (urine, transdermal, average of 4 monkeys), the “Urine Cum. Pentam., Trans. 0-48 h, Average (SD)” value is reported as 2.98 (1.97) mg. Besides, the “Urine Cum. Pentam., Trans. 0-48 h” value in data set [4] (urine, transdermal, individual monkeys 1, 2, 3, 4) was 3.16 mg and 2.18 mg and 5.61 mg and 0.95 mg.
